pIC50: −log10 of the molar value.
What follows are molecules tested against HIV-1 PR (Human immunodeficiency virus type 1 group M subtype B, UniProt P04585) (assay: HIV-protease inhibitory activity assay (FRET peptide substrate)). Conditions: Test Example 1.
Format: biochemical
How it was run: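 Compounds were preincubated with HIV-1 PR (0.83 ng) at room temperature in pH 4.8 NaAc buffer (0.5 M NaCl, EDTA, DTT, Tween 20), then HiLyte Fluor 488/QXL 520 FRET peptide (2 μmol/L final) was added for 60 min. Fluorescence was read at 485/535 nm, and IC50 was fitted by four-parameter logistic regression.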
`COc1ccc(S(=O)(=O)N(CC(C)C)CC(O)C(Cc2ccc(N(C)Cc3cc(-c4sc5c(c4C(=O)O)CC(C)(C)CC5)cc4ccccc34)cc2)NC(=O)OC2COC3(C)OCCC23)cc1` (stereo not drawn) [Compound I-703] was tested, and the pIC50 was 8.34. `COc1ccc(S(=O)(=O)N(CC(C)C)CC(O)C(Cc2ccc(OC3CCCN(c4ccc(C#N)cc4-c4sc5c(c4C(=O)O)CC(C)(C)CC5)C3)cc2)NC(=O)OC2COC3(C)OCCC23)cc1` (stereo not drawn) [Compound I-332] gave a pIC50 of 8.13. Molecule `COc1ccc(S(=O)(=O)N(CC(C)C)CC(O)C(Cc2ccc(N(CCCC(F)(F)F)Cc3ccccc3-c3sc4c(c3C(=O)O)CC(C)(C)CC4)cc2)NC(=O)OC2COC3(C)OCCC23)cc1` (stereo not drawn) [Compound I-427] has a pIC50 of 7.98. With `COc1ccc(S(=O)(=O)N(CC(C)C)CC(O)C(Cc2ccc(OCc3ccccc3-c3sccc3C(=O)O)cc2)NC(=O)OC2COC3(C)OCCC23)cc1` (stereo not drawn) [Compound I-97] the pIC50 was 9.09. In the case of `COc1ccc(S(=O)(=O)N(CC(C)C)CC(O)C(Cc2ccc(NCc3ccc(CCC(=O)Nc4sc5c(c4C(=O)O)CC(C)(C)CC5)cc3)cc2)NC(=O)OC2COC3(C)OCCC23)cc1` (stereo not drawn) [Compound I-439], the pIC50 was 8.46. For `COc1ccc(S(=O)(=O)N(CC(C)C)CC(O)C(Cc2ccc(NCc3cnc(OC)cc3-c3sc4c(c3C(=O)O)CC(C)(C)CC4)cc2)NC(=O)OC2COC3(C)OCCC23)cc1` (stereo not drawn) [Compound I-278], the pIC50 was 8.74. Work on `COc1ccc(S(=O)(=O)N(CC(C)C)CC(O)C(Cc2ccc(OCc3cccc(-c4sc5c(c4C(=O)O)CC(C)(C)CC5)c3C)cc2)NC(=O)OC2COC3(C)OCCC23)cc1` (stereo not drawn) [Compound I-92] yielded a pIC50 of 8.73. In the case of `COc1ccc(S(=O)(=O)N(CC(C)C)CC(O)C(Cc2ccc(NCc3ccc(C(=O)O)cc3)cc2)NC(=O)OC2COC3(C)OCCC23)cc1` (stereo not drawn) [Compound I-316], the pIC50 was 8.73. Molecule `COc1ccc(S(=O)(=O)N(CC(C)C)CC(O)C(Cc2ccc(OCc3ncccc3-c3ccccc3-c3sc4c(c3C(=O)O)CC(C)(C)CC4)cc2)NC(=O)OC2COC3(C)OCCC23)cc1` (stereo not drawn) [Compound I-110] has a pIC50 of 8.78. For `COc1ccc(S(=O)(=O)N(CC(C)C)CC(O)C(Cc2ccc(NCc3cccc(-c4sc5c(c4C(=O)O)CC(C)(C)CC5)c3Cl)cc2)NC(=O)OC2COC3(C)OCCC23)cc1` (stereo not drawn) [Compound I-544], the pIC50 was 8.44. `COc1ccc(S(=O)(=O)N(CC(C)C)CC(O)C(Cc2ccc(NCc3ccccc3-c3ccc4c(c3)cc(C(=O)O)n4C)cc2)NC(=O)OC2COC3(C)OCCC23)cc1` (stereo not drawn) [Compound I-899] gave a pIC50 of 8.84. `COc1ccc(S(=O)(=O)N(CC(C)C)CC(O)C(Cc2ccc(OCC3CCN(c4ccccc4-c4sc5c(c4C(=O)O)CC(C)(C)CC5)C3)cc2)NC(=O)OC2COC3(C)OCCC23)cc1` (stereo not drawn) [Compound I-204] gave a pIC50 of 8.69. `COc1ccc(S(=O)(=O)N(CC(C)C)CC(O)C(Cc2ccc(OCC3COCC3c3sc4c(c3C(=O)O)CC(C)(C)CC4)cc2)NC(=O)OC2COC3(C)OCCC23)cc1` (stereo not drawn) [Compound I-394] showed a pIC50 of 8.79. In the case of `COc1ccc(S(=O)(=O)N(CC(C)C)CC(O)C(Cc2ccc(CN(C)C3CCCCC3c3sc4c(c3C(=O)O)CC(C)(C)CC4)cc2)NC(=O)OC2COC3(C)OCCC23)cc1` (stereo not drawn) [Compound I-342], the pIC50 was 8.69. `COc1ccc(S(=O)(=O)N(CC(C)C)CC(O)C(Cc2ccc(N(C)CC3=C(c4sc5c(c4C(=O)O)CC(C)(C)CC5)C4CC(C3)C4(C)C)cc2)NC(=O)OC2COC3(C)OCCC23)cc1` (stereo not drawn) [Compound I-628] was tested, and the pIC50 was 8.30. `COc1ccc(S(=O)(=O)N(CC(C)C)CC(O)C(Cc2ccc(OCc3ccccc3-c3ncc4c(c3C(=O)O)CC(C)(C)CC4)cc2)NC(=O)OC2COC3(C)OCCC23)cc1` (stereo not drawn) [Compound I-251] showed a pIC50 of 8.64. Molecule `CC1(C)CCc2sc(-c3ccc(C(F)(F)F)cc3CNc3ccc(CC(NC(=O)OC4COC5OCCC45)C(O)CN(CC4CCCC4)S(=O)(=O)c4ccc5c(c4)OCO5)cc3)c(C(=O)O)c2C1` (stereo not drawn) [Compound I-876] has a pIC50 of 8.15. Molecule `COc1ccc(S(=O)(=O)N(CC(C)C)CC(O)C(Cc2ccc(OCc3ccccc3-n3nc(C(=O)O)c4c3CCC(C)(C)C4)cc2)NC(=O)OC2COC3OCCC23)cc1` (stereo not drawn) [Compound I-837] has a pIC50 of 9.09.
